Experimental data reported in a melting point compilation (Tetko et al.; mined from patent text by program, amines drawn as free bases though some values may be those of a salt).

Row | SMILES | melting point [°C]
1 | COCCn1cnc2cc(CN3CCN(C(c4ccccc4)c4ccccc4)CC3)ccc21 | 162
2 | CN(C)CCn1c(-c2ccc(Cl)cc2)cc2c1CCSC2 | 91.5 to 92.5
3 | CCOC(=O)C1=C(N)OC(C)=C(C(=O)OC(C)C)C1c1cccc([N+](=O)[O-])c1 (stereo not given) | 135
4 | CS(=O)(=O)Nc1cc(NC(=O)CN)c([N+](=O)[O-])cc1Oc1ccccc1 | 208 to 210
5 | Nc1cccc(NC(=O)c2ccc(CNC(=O)OCc3cccnc3)cc2)c1 | 156
6 | CCOc1ccc(C(=O)NCCc2ccc(S(=O)(=O)NC(=O)c3ccc(C(=O)NCC(=O)O)nc3)cc2)cc1OCC | > 230
7 | N#Cc1ccc(CC[C@H]2CC[C@H](CO)CC2)cc1 | 119 to 121
8 | Cc1nc2c(N)cc(Br)cc2n1O | 257 to 258
9 | CCn1c(=O)c2c(nc(/C=C/c3ccccc3OC)n2C)n(CC)c1=O | 190
10 | CN1CCN(C(=O)c2ccc(-c3cnc4c(c3)N(C(=O)c3cc(F)ccc3F)CCN4)cc2)CC1 | 201 to 203
11 | CCOC(=O)/C=C/c1nc(COc2ccc(CO)cc2OC)c(C)o1 | 96 to 97
12 | O=C(O)C=Cc1ccc(NC(=O)CCCCCNC(=O)OCc2ccccc2)cc1 | 142 to 144
13 | COCCNC(=O)c1ccc(C(=O)N2CCN(c3ncccc3NC(C)C)CC2)cc1 | 120 to 121
14 | Cc1cc(NS(=O)(=O)c2ccc(S(N)(=O)=O)cc2)c2[nH]cc(Br)c2c1 | 196 to 197
15 | Nc1cc(N2CC(COc3ccccc3)OC2=O)ccn1 (stereo not given) | 191 to 192
16 | CC(C)c1c(S(=O)(=O)c2ccc(O)cc2)cnn1C | 209 to 210
17 | N#Cc1c(N2CCc3ccccc3CC2)nc(NCC(F)(F)F)n(CC(F)(F)F)c1=O | > 200
18 | CC(C)(C)OC(=O)NCCCCC(N)C(=O)Nc1ccccc1 (stereo not given) | 72 to 74.5
19 | CCCCS(=O)c1nc[nH]n1 (stereo not given) | 82 to 83
20 | COC1c2c(c(C)nn2-c2ccccn2)C(=O)CC1(C)C (stereo not given) | 86 to 89
21 | CCON=C(C)C(C)=NOc1ncccc1C(=NOC)C(=O)NC | 110
22 | CC(C)(C#N)Cc1cccc(CC(C)(C)C#N)c1 | 58 to 63
23 | Cc1ccccc1Oc1nnc(Cl)c(C)c1O | 209 to 213
24 | N=C(NO)c1ccc(-c2ccc(-c3ccc(C(=N)NO)o3)cc2)o1 | > 300
25 | O=C(O)CCCc1cc2nc(Cl)ccc2n1S(=O)(=O)c1ccc(-c2cscn2)cc1 | 211 to 217

Row | SMILES | melting point [°C]
26 | Cn1ncnc1COc1nn2c(-c3ccc(F)cc3)nnc2cc1-c1ccsc1 | 268 to 269
27 | COC(=O)COc1cc2cccnc2c(-c2cccc([N+](=O)[O-])c2)n1 | 160 to 162
28 | NS(=O)(=O)c1ccc(-c2c(F)c(F)c(F)c(F)c2-c2ccc(F)cc2)cc1 | 202 to 203
29 | COc1ccc2c(c1)c1c3c(c(-c4ccccc4OC)cc1n2CCCO)C(=O)NC3=O | 223 to 225
30 | COc1ccc(/C=C/C=C/C(=O)Oc2ccc([N+](=O)[O-])cc2)cc1 | 176 to 177
31 | N=C(N)NCCCCOc1ccc2c(c1)NC(=O)C(CCC(=O)O)C2 (stereo not given) | 176 to 177
32 | O=C(O)c1nc(C2CC2)nc(Cl)c1Cl | 126 to 127
33 | CC(C)(C)NC(=O)C(Br)CCl (stereo not given) | 163 to 168
34 | O=S(=O)(O)OC[C@H]1Cc2ccccc2CN1 | 318
35 | Cc1ccc(-n2c(-c3c4ccccc4cc4ccccc34)ccc2-c2c3ccccc3cc3ccccc23)cc1 | 262 to 263
36 | CCCCCCCCC(C)C(N)=O (stereo not given) | 80 to 81
37 | CC(=O)N(C(=O)C(C)(C)C)C1CC(C)(C)N(OC(=O)C(C)(C)C)C(C)(C)C1 | 169 to 173
38 | COC(=O)c1snc(-c2ccc([N+](=O)[O-])cc2)c1C(=O)OC | 142 to 143
39 | C[C@H](NS(=O)(=O)c1ccc2c(c1)Sc1ccccc1O2)C(=O)O | 75 to 85
40 | CCCc1c(OCC(O)CSc2nc3ccc(C(=O)O)cc3[nH]2)ccc(C(C)=O)c1O (stereo not given) | 133 to 135
41 | CCC1(C(=O)O)c2ccccc2Oc2ccccc21 | 175 to 176
42 | Cc1onc(-c2ccc(Cl)o2)c1-c1ccc(F)cc1 | 104 to 105
43 | COc1ccc2c(=O)cc(-c3ccccc3Cl)oc2c1 | 148 to 150
44 | CC[C@H]1[C@H](O)[C@@H](C)C(=O)N1c1ccc(C#N)c(Cl)c1 | 120 to 123
45 | N#Cc1c(N2CCN(C(=O)c3ccco3)CC2)c2cc(Cl)cnc2[nH]c1=O | 303
46 | COC(=O)C1Cc2c([nH]c3ccccc23)C(c2cccc(Cl)c2)N1 (stereo not given) | 150 to 160
47 | O=C(Cc1ccccc1Nc1c(Cl)cccc1Cl)OCc1ccncc1 | 121 to 123
48 | COC(=O)c1cccc2c1Nc1ccc(I)cc1C2 | 122 to 124
49 | COC(=O)c1ccc(Cc2c[nH]c3ccc(C=O)cc23)c(OC)c1 | 117 to 120
50 | Nc1ccc(C#Cc2c(F)c(F)nc(F)c2F)cc1 | 164 to 165
